A short description of data set [1]: in vitro. Particulars: both, human, plasma.
The nature of another data set: physchem. Particulars: pH 7.4.
The nature of a further data set: in vivo. As to conditions: male, rat, sc; for half-life: Sprague-Dawley.
The test system of data set [2] is growth hormone (GH) release. The data set can be described thus: In vivo inhibition of growth hormone release (sandwich ELISA). On the set-up: species or system rats. As to conditions: for AUC 0_24: growth hormone AUC 0-24 h; for AUC 0_24 / AUC 0_48 / AUC 24_48: mean of n = 3; for AUC 0_48: growth hormone AUC 0-48 h; for AUC 24_48: growth hormone AUC 24-48 h. As for the experimental part: In vivo inhibition of GH. Finally, we estimated the in vivo efficacy of 13 and the thioamidated analogs 13b, 13d, and 13e in suppressing the release of growth hormone (GH) post subcutaneous injection at 250 μg/kg dosage (Fig. 7e). 13a was also included as a negative control to assess its effect on GH release. The rats were bled from their orbital sinus, and the plasma GH levels were evaluated through sandwich ELISA. […] This correlates well with the high plasma concentration of 13 at the initial time points and a rapid drop within 2 h of s.c. administration (Fig. 7c). […] In contrast, the inhibitory effect lasts longer in 13b, 13d, and 13e showing a significant reduction in plasma GH levels within 24–48 h (Fig. 7h). […] The rapid drop in plasma concentration of 13 is responsible for its least in vivo efficacy.
Animal housing and acclimatization were done at Central Animal Facility, IISc Bangalore, as mentioned in the previous section, following protocols from the IEAC and CPCSEA. […] Samples were processed as discussed in Supplementary Information, and sandwich ELISA was performed to measure the growth hormone level in blood plasma. For acute toxicity, after peptide injection (s.c.), blood samples were collected on the 14th day for liver and kidney function tests.

Data set [3] is classed as physicochemical.
Text: Since reduced solvation of S also contributes to the lipophilicity of the thioamidated peptides, we sought to estimate the global desolvation of the macrocyclic peptides, which is affected by solvation of both N(H) and C(S). […] Thus, we evaluated the desolvation potential of the cyclic peptides by determining the distribution coefficients in heptane-ethylene glycol (logDh/e), a solvent system that provides an experimental estimate of desolvation or hydrogen bond potential[38].
A short description of data set [4]: PAMPA passive permeability.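 Further: passive permeability across an artificial membrane in 96-well pre-coated PAMPA plates, which lack transporters and efflux systems.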 Type of data set: in vitro ADME. As to conditions: Pe.
Experimental: Encouraged by this, the passive permeability of the analogs was evaluated using an artificial membrane (PAMPA), which measures permeability of compounds in the absence of transporters and efflux systems[32].
96-well BD Corning® pre-coated PAMPA plates were used following the supplier’s protocol, details in Supplementary Information.
A further data set addresses T1, SSTR2 (Homo sapiens, UniProt P30874).
T1 construct: expressed in transfected cells; host or cells: HEK-293T (CRL-3216)
Nature of the data set: GloSensor assay, inhibition of forskolin-induced cAMP production. As to conditions: for binding against SSTR2 (in words): HEK293T cells expressing SSTR2, cAMP GloSensor; for IC50: read-out: IC50 sstr2. Type of data set: cell-based.

For the next data set, the target named is T2, SSTR5 (Homo sapiens, UniProt P35346).
T2 construct: expressed in transfected cells; host or cells: HEK-293T (CRL-3216)
The description is as above. It is filed as cell-based. As to conditions: for binding against SSTR5 (in words): HEK293T cells expressing SSTR5, cAMP GloSensor. Here is the method: HEK-293T cells (CRL-3216 from ATCC, procured from NCCS, Pune) were co-transfected with human somatostatin receptor subtypes 2 & 5, plasmid cDNA, and cAMP biosensor (pGloSensorTM-22F plasmid; Promega Corp.) using PEImax. Ligand incubation was followed by the addition and incubation of forskolin (FSK) to the plate. Dose-dependent inhibition of forskolin-induced cAMP production by the peptide ligands was measured using a luminescence plate reader. An elaborate description of the assay setup has been provided in Supplementary Information.

A short description of data set [5]: in vitro. Particulars: both, human, plasma. This is another data set of the same source.
Data set [6] can be described thus: in vitro. As to conditions: pig, simulated intestinal fluid.

Starred links: 1 amine or outer side, 2 acyl side, 3 side chain; linkers in the order of their positions; H or OH if unused. Non-standard residues stand in square brackets, D forms with d. Residues, ends and D or L forms follow the SMILES beside them. X10 = NCCCC[C@H](NC(=S)[C@@H](Cc1c[nH]c2ccccc12)N[*:1])C(=O)[*:2]; X12 = C[C@@H](O)[C@H](N[*:1])C(=S)N[C@@H](Cc1ccccc1)C(=O)[*:2]; X7 = C[C@@H](O)[C@H](NC(=S)[C@H](CCCCN)N[*:1])C(=O)[*:2]; X8 = O=C([C@H](Cc1ccccc1)NC(=S)[C@@H]1CCCN1[*:1])[*:2]

T2 sequence (P35346 whole entry): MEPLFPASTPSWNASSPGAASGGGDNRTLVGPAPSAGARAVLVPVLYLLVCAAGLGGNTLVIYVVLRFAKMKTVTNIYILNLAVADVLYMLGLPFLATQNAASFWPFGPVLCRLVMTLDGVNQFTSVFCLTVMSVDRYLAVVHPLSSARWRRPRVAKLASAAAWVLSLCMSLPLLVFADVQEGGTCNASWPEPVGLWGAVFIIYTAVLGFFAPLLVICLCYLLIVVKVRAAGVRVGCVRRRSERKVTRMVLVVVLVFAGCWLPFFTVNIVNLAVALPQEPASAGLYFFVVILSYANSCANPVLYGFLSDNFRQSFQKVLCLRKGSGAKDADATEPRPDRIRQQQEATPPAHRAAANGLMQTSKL
T1 sequence (P30874 whole entry): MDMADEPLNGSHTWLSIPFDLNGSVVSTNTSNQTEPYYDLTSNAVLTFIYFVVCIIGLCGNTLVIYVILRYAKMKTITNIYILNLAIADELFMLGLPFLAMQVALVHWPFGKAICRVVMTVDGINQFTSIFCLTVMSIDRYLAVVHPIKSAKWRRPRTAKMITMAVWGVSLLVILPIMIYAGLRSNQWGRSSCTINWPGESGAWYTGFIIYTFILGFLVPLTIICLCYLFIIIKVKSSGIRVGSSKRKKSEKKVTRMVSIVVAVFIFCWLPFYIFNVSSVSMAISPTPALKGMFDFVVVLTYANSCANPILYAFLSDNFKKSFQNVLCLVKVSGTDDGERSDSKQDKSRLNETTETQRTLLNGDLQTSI

As to `C[C@@H](O)[C@@H]1NC(=O)[C@H](CCCCN)NC(=S)[C@@H](Cc2c[nH]c3ccccc23)NC(=O)[C@H](Cc2ccccc2)NC(=O)[C@@H]2CCCN2C(=O)[C@H](Cc2ccccc2)NC1=O` [13a] (cyclo(FPF[X10]T)), the fraction unbound in “in vitro [1]” is 0.11. In the data set “physchem”, the logD is -0.65. Moreover, in “in vivo” (Sprague Dawley), the level at 0.5 h came to 146 ng/mL and the level at 1 h worked out at 107 ng/mL. In addition, in “in vivo” (Sprague Dawley, 250 ug/kg), the level at 2 h was 40 ng/mL. For the same molecule, the half-life in the data set “in vivo” is 0.7 ± 0.1 h. Also, in data set [2], the “AUC 0_24” value amounted to 1085 ng·h/mL, the “AUC 0_48” value came to 2274 ng·h/mL and the “AUC 24_48” value worked out at 1188 ng·h/mL. For the same molecule, the logD heptane ethylene glycol in data set [3] was -0.94. Moreover, in the data set on pancreatin, the “t1/2 in SIF” value is on record as “over 72 h”. This molecule gave an apparent permeability (Papp) in data set [4] of 2.45 ×10⁻⁶ cm/s. On SSTR2, the “binding against SSTR2 (in words)” value is listed as “complete loss in binding” and the IC50 was > 10000 nM. For the same molecule, at SSTR5, the IC50 is > 10000 nM and the “binding against SSTR5 (in words)” value was “complete loss in binding”. Besides, the half-life in “in vitro [5]” is 34 h.

`C[C@@H](O)[C@@H]1NC(=S)[C@H](CCCCN)NC(=O)[C@@H](Cc2c[nH]c3ccccc23)NC(=O)[C@H](Cc2ccccc2)NC(=O)[C@@H]2CCCN2C(=O)[C@H](Cc2ccccc2)NC1=O` [13b] (cyclo(FPF[dW][X7])) showed a fraction unbound in “in vitro [1]” of 0.14. Besides, the logD in “physchem” was -0.64. Also, in “in vivo” (Sprague Dawley), the level at 0.5 h is 72 ng/mL and the level at 1 h turned out to be 44 ng/mL. The molecule further showed a half-life in the data set “in vivo” of 0.6 ± 0.2 h. Moreover, in data set [2], the “AUC 0_24” value stood at 436 ng·h/mL, the “AUC 0_48” value was 1134 ng·h/mL and the “AUC 24_48” value worked out at 668 ng·h/mL. Also, the “inhibition of unstimulated GH release” value in [2] (rats, 250 μg/kg s.c., plasma GH by sandwich ELISA over 48 h) was “significant inhibition”. The logD heptane ethylene glycol in data set [3] is -0.83. Also, in the data set on pancreatin, the “t1/2 in SIF” value is “over 72 h”. Besides, the Papp in data set [4] turned out to be 2.92 ×10⁻⁶ cm/s. Further, at SSTR2, the IC50 is 15.6 ± 4.3 nM. Also, the IC50 at SSTR5 turned out to be 228 ± 41.9 nM. The half-life in “in vitro [5]” was 32 h.

Take `C[C@@H](O)[C@@H]1NC(=O)[C@H](CCCCN)NC(=O)[C@@H](Cc2c[nH]c3ccccc23)NC(=O)[C@H](Cc2ccccc2)NC(=O)[C@@H]2CCCN2C(=O)[C@H](Cc2ccccc2)NC1=S` [13c] (cyclo(F[dW]K[X12]P)): the fraction unbound in “in vitro [1]” was 0.21. Further, the log distribution coefficient (logD) in “physchem” was -1.04. In addition, the half-life was 2.5 h in “in vitro [6]” and 33 h in “in vitro [5]”. For the same molecule, in data set [3], the logD heptane ethylene glycol was -1.18. This molecule also showed a Papp in data set [4] of 0.96 ×10⁻⁶ cm/s. The “binding against SSTR2 (in words)” value on SSTR2 is recorded as “complete loss in binding”. In addition, on SSTR5, the “binding against SSTR5 (in words)” value is on record as “complete loss in binding”.

As for `C[C@@H](O)[C@@H]1NC(=O)[C@H](CCCCN)NC(=O)[C@@H](Cc2c[nH]c3ccccc23)NC(=O)[C@H](Cc2ccccc2)NC(=S)[C@@H]2CCCN2C(=O)[C@H](Cc2ccccc2)NC1=O` [13e] (cyclo(F[X8][dW]KT)), the fraction unbound in “in vitro [1]” amounted to 0.09. For the same molecule, the logD in the data set “physchem” is -0.72. Moreover, in “in vivo” (Sprague Dawley), the level at 0.5 h amounted to 38.1 ng/mL. In “in vivo” (Sprague Dawley), this molecule displayed a level at 1 h of 57 ng/mL. In addition, the half-life in “in vivo” is 0.6 ± 0.3 h; in the data set “in vitro [5]” it was 31 h. Moreover, the logD heptane ethylene glycol in data set [3] was -1.16. Further, in data set [4], the Papp came to 1.92 ×10⁻⁶ cm/s. The IC50 on SSTR2 is 19.2 ± 11.4 nM; against SSTR5, 232 ± 70.4 nM.

(Values after paper PMC10539501 (Nature Communications, 2023).)
